# According to patent US20150307938A1, “METHOD TO IDENTIFY A NOVEL CLASS OF IMMUNOLOGIC ADJUVANTS” (Lancell, L.L.C., priority 2011, published 2015):
# “Also recorded” adds a separate entry of the source.
# Assays:
# [1] = Estimate of maximum absorbed dose from transdermal transport rate of DBP on human skin in vivo; settings: from known transdermal transport rate on human skin in vivo
# dendritic cells = assay: 48 hr response of wild-type and Caspase-1−/− mice to topical FITC+DBP (flow cytometry of draining lymph node); format: in vivo; settings: vs wild-type
# Procedure: We also tested the relevance of a second dendritic cell activation system that intersects with TLR, the NALP inflammasome (reviewed in Franchi, L. et al. 2009 “The inflammasome: a Caspase-1-activation platform that regulates immune responses and disease pathogenesis” Nature Immunology 10:241-247).
# Mice were treated topically on the shaved abdominal skin with FITC dissolved in acetone (5 mg/ml) combined with an equal volume of DBP. Two days later, the skin draining inguinal lymph node cells were stained for immunofluorescent flow cytometry using monoclonal antibodies specific for CD19, CD11c, CD40, I-Ab, CD80, and CD86 obtained from BD Pharmingen, and detected using a Becton Dickenson FACSCalibur followed by analysis of the data using FlowJo software.
# ear skin = assay: Cutaneous lymphoid stress response gene expression after topical DBP on ear skin; format: in vivo; settings: ear skin of C57B1/6 mice
# Excerpt: (§1) The cutaneous lymphoid stress response bears a strong resemblance to the effects of topical DBP. DBP is required for the induction of contact hypersensitivity to FITC in mice, a form of allergic response. Topical DBP induces the migration of Langerhans cells from the epidermis to draining lymph nodes. And, topical DBP acts as an adjuvant for antigens injected into the skin, including endotoxin-free OVA. One might expect, therefore, that topical DBP would cause the same effects as tape stripping or occlusive skin patch immunization. To our surprise, none of the effects that characterize the DETC-dependent cutaneous lymphoid stress-surveillance response are found in the response to DBP.
# OVA [2] = assay: Immune response to intradermal peptide (SIINFEKL) or protein (OVA) antigen, also alum-adsorbed OVA, with topical DBP; format: in vivo, mice
# Excerpt: Topical DBP induced a 16-fold increase in the IgG1 Ab response to OVA adsorbed to alum and increased the IgG2c response 26-fold.
# skin [3] = assay: Skin histology after multiple topical applications of DBP; settings: multiple topical doses
# OVA [4] = assay: Antibody response to endotoxin-free OVA injected intradermally followed by topical DBP; format: in vivo, B6 mice; settings: endotoxin-free OVA i.d. followed by topical DBP
# Excerpt: as §1
# skin [5] = settings: in vivo
# [6] = test system: Murine Skin Dendritic Cells; assay: Activation of murine skin dendritic cells by DBP vs. DBlT (DC per lymph node, CD86); format: in vivo; settings: topical treatment
# Fluzone [7] = test system: Fluzone; parameters: species or system C57BL/6 mice; settings: mouse, in vivo
# Fluzone [8] = test system: Fluzone; parameters: species or system mice; settings: mouse, in vivo
smiles,measurement,setting,value
"CCCCOC(=O)c1ccccc1C(=O)OCCCC [DBP, dibutylphthalate]","maximum absorbed dose from topical use as an adjuvant, vs LOEL in pregnant rats",[1],five logs lower than the LOEL
same,"maximum absorbed dose from topical use as an adjuvant, vs amount ingested daily",[1],no higher than the amount we ingest daily
same,dendritic cell response in Casp−/− mice,dendritic cells,undiminished
same,expression of H60a,ear skin,no statistically significant increase
same,expression of Il-13,ear skin,no statistically significant increase
same,expression of Il-25,ear skin,no statistically significant increase
same,expression of KLrk1 (encodes NKG2D),ear skin,no statistically significant increase
same,expression of Rae-1,ear skin,no statistically significant increase; also recorded: actually diminished
same,T cell and antibody responses,OVA [2]; DBP on skin of mice injected intradermally with adjuvant-free SIINFEKL or OVA,dramatic increase
same,survival of anaphylaxis,"OVA [2]; high dose of alum-adsorbed OVA plus topical DBP, 60% succumbed without DBP",all of the mice survived
same,increase in the IgG1 Ab response to OVA adsorbed to alum,OVA [2]; topical DBP,16 fold
same,increase in the IgG2c response to OVA adsorbed to alum,OVA [2]; topical DBP,26 fold
same,histologic evidence of inflammation in the skin,skin [3],no histologic evidence of inflammation
same,antigen-specific IgE,OVA [4],undetectable
same,antigen-specific IgG1 antibodies,OVA [4],significantly elevated
same,antigen-specific IgG2b antibodies,OVA [4],significantly elevated
same,antigen-specific IgG2c antibodies,OVA [4],significantly elevated
same,histologic evidence of contact hypersensitivity,skin [5],no histologic evidence of contact hypersensitivity
same,MFI CD86,[6],618 (95)
same,HAI titer / adjuvant effect with the same dose of Fluzone,Fluzone [7],majorly improved
same,IgA Ab in bronchoalveolar lavage,Fluzone [8],highly significantly increased
same,"IgA Ab in bronchoalveolar lavage, persistence",Fluzone [8],remained undiminished
same,Serum antibodies of all IgG isotypes,Fluzone [8],highly significantly increased
